Data set [1] can be described thus: Solubility test. Particulars: in water at 25° C.±2° C. The class given is physicochemical. The protocol: The fine powder of the test sample was weighed into an appropriate amount of water at 25° C.±2° C. and shaken vigorously for 30 seconds every 5 minutes so that it was fully dissolved within 30 minutes. If no visible solute particles were observed, it was considered completely dissolved. “Readily soluble” means that 1 g of the test sample could be dissolved in 1-10 ml of water; and “soluble” means that 1 g of the test sample could be dissolved in 10-30 ml of water; “slightly soluble” means that 1 g of the test sample could be dissolved in 30-100 ml of water; and “sparingly soluble” means that 1 g of the test sample could be dissolved in 100-1,000 ml of water; “nearly insoluble or insoluble” means that 1 g of the test sample could not be completely dissolved in 10,000 ml of water.

For data set [2], the system named is U937 (FLT3 wild-type). In words: In vitro growth inhibition (GI50), U937. The class given is cell-based. Particulars: Homo sapiens, U-937; Cell lines of leukemia; read-out: GI 50 U937 FLT 3(WT).
For data set [3], the system named is RAMOS (positive expression of Brutons tyrosine protein kinase). Description: In vitro growth inhibition (GI50), RAMOS. The class given is cell-based. Particulars: Homo sapiens, Cell lines of leukemia, read-out: GI 50 Ramos BTK.
The test system of data set [4] is K562 (FLT3 negative expression, positive expression of BCR-ABL fusion protein). In words: In vitro growth inhibition (GI50), K562. The class given is cell-based. Particulars: Homo sapiens, Cell lines of leukemia, read-out: GI 50 K562 BCR-ABL.
For data set [5], the system named is Kasumi-1 (c-Kit N822K mutant type). In words: In vitro growth inhibition (GI50), Kasumi-1. The class given is cell-based. The settings on record: Homo sapiens, Cell lines of leukemia, read-out: GI 50 Kasumi-1 Kit (N822K). In outline:
(§1)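 Cells in RPMI1640 with 10% FBS, seeded at 5–10×10^4 cells/mL, exposed next day to compound at 5,000 nM down to 0.01 nM (2- or 10-fold dilutions, ≤1% solvent) for 3–5 days at 37 °C. CCK8 absorbance at 450 nm, growth rate relative to pre-treatment and solvent controls, GI50 from concentration–growth curve.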

The test system of data set [6] is RS4; 11 (FLT3 wild type). In words: In vitro growth inhibition (GI50), RS4; 11. The class given is cell-based, human. Particulars: Homo sapiens, RS4-11; Cell lines of leukemia; read-out: GI 50 RS4: 11 FLT3 (WT).
Data set [7] has as its system OCI-AML3 (NPMc+ mutant type). In words: In vitro growth inhibition (GI50), OCI-AML3. The class given is cell-based. Particulars: Homo sapiens, OCI-AML-3; Cell lines of leukemia; read-out: GI 50 OCI- AML3 NPMc+.
Data set [8] has as its system KG-1 (expressing FGFR1OP2-FGFR1 fusion protein). In words: In vitro growth inhibition (GI50), KG-1. Particulars: Homo sapiens; Cell lines of leukemia; read-out: GI 50 KG-1 FGFR1OP 2-FGFR1. The class given is cell-based.
For data set [9], the system named is MV4-11 (FLT3 ITD+/+ mutant type). Description: In vitro growth inhibition (GI50), MV4-11. The class given is cell-based, human. The settings on record: for GI50: Homo sapiens, MV4-11, Cell lines of leukemia, read-out: GI 50 MV4-11 FLT3 (ITD +/+).
In data set [10] the test system is HL-60 (FLT3 wild type). Description: In vitro growth inhibition (GI50), HL-60. The class given is cell-based. The settings on record: Homo sapiens, Cell lines of leukemia, read-out: GI 50 HL60 FLT3 (WT). In outline: as §1
For data set [11], the system named is MOLM-13 (FLT3 ITD+/− mutant type). In words: In vitro growth inhibition (GI50), MOLM-13. The class given is cell-based, human. The settings on record: for GI50: Homo sapiens, MOLM-13, Cell lines of leukemia, read-out: GI 50 MOLM-13 FLT3 (ITD+/−).
[12] abbreviates: compared with the control compound AC220.

Structures can show the parent of a compound that is named as a salt.

Data on 15 compounds can be found in patent US10647680B2, “Urea compound, preparation method therefor and medical use thereof” (Ancureall Pharmaceutical (Shanghai) Co., Ltd., priority 2016, dated 2020).

`COc1cc2ncn(-c3ccc(NC(=O)n4nc(C(C)(C)C)cc4N)cc3)c2cc1OC` [Compound 129 Mesylate, 5-amino-3-tert-butyl-pyrazol-1-carboxylic acid [4-(5,6-dimethoxyl-benzimidazol-1-yl)-phenyl]-amide]: the Solubility entry in [1] is listed as “readily soluble (“Readily soluble” means that 1 g of the test sample could be dissolved in 1-10 ml of water)”.
For the compound `COCCOc1ccc2c(c1)ncn2-c1ccc(NC(=O)Nc2cc(C(C)(C)C)n[nH]2)cc1` [Compound 77 Hydrochloride, 1-(5-tert-butyl-2H-pyrazol-3-yl)-3-{4-[5-(2-methoxyl-ethoxyl)-benzimidazol-1-yl]-phenyl}-urea], the Solubility entry in data set [1] (listed as 77 Hydrochloride) is on record as “slightly soluble (“slightly soluble” means that 1 g of the test sample could be dissolved in 30-100 ml of water)”.
As for `CC(C)(C)c1cc(NC(=O)Nc2ccc(-n3cnc4cc(OCCN5CCOCC5)ccc43)cc2)[nH]n1` [Compound 89 Mesylate, 1-(5-tert-butyl-2H-pyrazol-3-yl)-3-{4-[5-(2-morpholin-4-yl-ethoxyl)-benzimidazol-1-yl]-phenyl}-urea], the Solubility entry in data set [1] is recorded as “readily soluble (“Readily soluble” means that 1 g of the test sample could be dissolved in 1-10 ml of water)”.
As for `CCCCCCOc1ccc2c(c1)ncn2-c1ccc(NC(=O)n2nc(C(C)(C)C)cc2N)cc1` [Compound 117, 5-amino-3-tert-butyl-pyrazol-1-carboxylic acid [4-(5-hexyloxyl-benzimidazol-1-yl)-phenyl]-amide], the GI50 in [2], in data set [3], in data set [4], in data set [5], in data set [6] and in data set [7] was more than 1000 nM in each case. In addition, the GI50 was more than 1000 nM in [8], 100 to 1000 nM in data set [9], more than 1000 nM in [10] and 100 to 1000 nM in data set [11]. For the same compound, the Solubility entry in data set [1] (listed as 117 Free base) is “insoluble (“nearly insoluble or insoluble” means that 1 g of the test sample could not be completely dissolved in 10,000 ml of water)”.
As for `CC(C)(C)c1cc(NC(=O)Nc2ccc(-n3cnc4cc(OCCN5CCOCC5)ccc43)cc2)no1` [Compound 16 Mesylate, 1-(5-tert-butyl-isoxazol-3-yl)-3-{4-[5-(2-morpholin-4-yl-ethoxyl)-benzimidazol-1-yl]-phenyl}-urea], the Solubility entry in data set [1] (listed as 16 Mesylate) is “readily soluble (“Readily soluble” means that 1 g of the test sample could be dissolved in 1-10 ml of water)”.
As for `CC(C)(C)c1cc(N)n(C(=O)Nc2ccc(-n3cnc4cc(OCCO)ccc43)cc2)n1` [Compound 121 Mesylate, 5-amino-3-tert-butyl-pyrazol-1-carboxylic acid {4-[5-(2-hydroxy-ethoxyl)-benzimidazol-1-yl]-phenyl}-amide], the Solubility entry in [1] is “readily soluble (“Readily soluble” means that 1 g of the test sample could be dissolved in 1-10 ml of water)”.
On to `COCCOc1ccc2c(c1)ncn2-c1ccc(NC(=O)Nc2cc(C(C)(C)C)n[nH]2)cc1` [Compound 77 Benzene sulfonate, 1-(5-tert-butyl-2H-pyrazol-3-yl)-3-{4-[5-(2-methoxyl-ethoxyl)-benzimidazol-1-yl]-phenyl}-urea], for which the Solubility result in data set [1] (listed as 77 Benzene sulfonate) is “slightly soluble (“slightly soluble” means that 1 g of the test sample could be dissolved in 30-100 ml of water)”.
As for `CN(C)CCCOc1ccc2c(c1)ncn2-c1ccc(NC(=O)Nc2cc(C(C)(C)C)n[nH]2)cc1` [Compound 81], the GI50 in data set [2] was 100 to 1000 nM; in data set [3] it was 100 to 1000 nM; in data set [4], 100 to 1000 nM; in data set [5] it was more than 1000 nM; in data set [6], 10 to 100 nM; in data set [7], more than 1000 nM. Besides, the GI50 is more than 1000 nM in data set [8], 0.01 to 0.1 nM in [9], 100 to 1000 nM in data set [10] and 0.01 to 0.1 nM in [11]. For the same compound, the “inhibition activity against the growth of MV4-11 cells compared with AC220” value in data set [9] (setting [12]) is recorded as “stronger inhibition activity”. In addition, the Solubility entry in data set [1] (listed as 81 Free base) is reported as “insoluble (“nearly insoluble or insoluble” means that 1 g of the test sample could not be completely dissolved in 10,000 ml of water)”. For the same compound, the “inhibition activity against the growth of MOLM-13 cells compared with AC220” value in data set [11] (setting [12]) is “stronger inhibition activity”.
With `COCCOc1ccc2c(c1)ncn2-c1ccc(NC(=O)Nc2cc(C(C)(C)C)n[nH]2)cc1` [Compound 77 p-toluenesulfonate, 1-(5-tert-butyl-2H-pyrazol-3-yl)-3-{4-[5-(2-methoxyl-ethoxyl)-benzimidazol-1-yl]-phenyl}-urea], the Solubility result in data set [1] (listed as 77 p-toluenesulfonate) is recorded as “slightly soluble (“slightly soluble” means that 1 g of the test sample could be dissolved in 30-100 ml of water)”.
Take `COc1ccc2c(c1)ncn2-c1ccc(NC(=O)Nc2cc(C(C)(C)C)n[nH]2)cc1` [Compound 71 Hydrochloride, 1-(5-tert-butyl-2H-pyrazol-3-yl)-3-[4-(5-methoxyl-benzimidazol-1-yl)-phenyl]-urea]: the Solubility entry in [1] (listed as 71 Hydrochloride) is on record as “slightly soluble (“slightly soluble” means that 1 g of the test sample could be dissolved in 30-100 ml of water)”.
Consider `CN(C)CCCOc1ccc2c(c1)ncn2-c1ccc(NC(=O)Nc2cc(C(C)(C)C)n[nH]2)cc1` [Compound 81 Mesylate], for which, in [1], the Solubility entry is recorded as “readily soluble (“Readily soluble” means that 1 g of the test sample could be dissolved in 1-10 ml of water)”.
Take `COCCOc1ccc2c(c1)ncn2-c1ccc(NC(=O)Nc2cc(C(C)(C)C)n[nH]2)cc1` [Compound 77 Trifluoroacetates, 1-(5-tert-butyl-2H-pyrazol-3-yl)-3-{4-[5-(2-methoxyl-ethoxyl)-benzimidazol-1-yl]-phenyl}-urea]: the Solubility entry in data set [1] (listed as 77 Trifluoroacetates) was “slightly soluble (“slightly soluble” means that 1 g of the test sample could be dissolved in 30-100 ml of water)”.
On to `COCCOc1ccc2ncn(-c3ccc(NC(=O)Nc4cc(C(C)(C)C)n[nH]4)cc3)c2c1` [Compound 98 Mesylate, 1-(5-tert-butyl-2H-pyrazol-3-yl)-3-{4-[6-(2-methoxyl-ethoxyl)-benzimidazol-1-yl]-phenyl}-urea], for which the Solubility result in [1] is reported as “readily soluble (“Readily soluble” means that 1 g of the test sample could be dissolved in 1-10 ml of water)”.
Regarding `CCCCCCOc1ccc2c(c1)ncn2-c1ccc(NC(=O)n2nc(C(C)(C)C)cc2N)cc1` [Compound 117 Mesylate, 5-amino-3-tert-butyl-pyrazol-1-carboxylic acid [4-(5-hexyloxyl-benzimidazol-1-yl)-phenyl]-amide], the Solubility result in data set [1] was “readily soluble (“Readily soluble” means that 1 g of the test sample could be dissolved in 1-10 ml of water)”.
For `CN1CCN(CCCOc2ccc3c(c2)ncn3-c2ccc(NC(=O)Nc3cc(C(C)(C)C)on3)cc2)CC1` [Compound 19, 1-(5-tert-butyl-isoxazol-3-yl)-3-(4-{5-[3-(4-methyl-piperazin-1-yl)-propoxyl]-benzimidazol-1-yl}-phenyl)-urea], the GI50 in data set [2] was more than 1000 nM; in data set [3], 100 to 1000 nM; in data set [4], 100 to 1000 nM; in [5], 100 to 1000 nM; in [6] it was 10 to 100 nM; in data set [7], more than 1000 nM. Besides, the GI50 lay within 100 to 1000 nM in data set [8], 0.1 to 1 nM in data set [9], 100 to 1000 nM in data set [10] and 0.1 to 1 nM in [11].
